We go through 23 compounds from patent US20120232070A1, “Use of Indole Derivatives as Nurr-1 Activators for the Application Thereof as a Medicament for the Treatment of Parkinson's Disease” (Laboratoires Fournier SA, priority 2009, published 2012).

Test [1] has as its target hNurr1_RXRαFL (NURR1/RXRα heterodimer) (Homo sapiens, UniProt P19793+P43354). Briefly: Transactivation assay in Cos-7 cells, NURR-1-Gal4 / RXRα, luciferase reporter. In kind it is cell-based. The note with it: for Emax: COS-7, read-out: hNurr1_RXRαFL Eff (%), efficacy in % relative to the reference XCT0135908 at 2·10^−5 M (=100%); for EC50: Cos-7 cells, overnight incubation; for hNurr1_RXRαFL Eff (%): efficacy in % relative to the reference XCT0135908 at 2·10^−5 M (=100%). The method, then:
(§1) First, the capacity of the compounds according to the invention for acting as an activator of the heterodimers formed by the NURR-1 nuclear receptor and the RXR nuclear receptors was measured by an in vitro assay.
(§2) A transactivation assay was used as a primary screening assay. Cos-7 cells were co-transfected with a plasmid expressing a chimera of the human receptor NURR-1-Gal4, a plasmid expressing the human receptor RXR (RXRα or RXRγ receptor) and a reporter plasmid 5Gal4pGL3-TK-Luc. The transfections were performed by means of a chemical agent (Jet PEI).
(§3) The transfected cells were distributed in 384-well plates and left resting for 24 hours.
(§4) After 24 hours, the culture medium was changed. The products according to the invention were added (final concentration between 10^−4 and 3·10^−10 M) to the culture medium. After overnight incubation, luciferase expression was measured after addition of “SteadyGlo” according to the manufacturer's instructions (Promega).
(§5) 4-[[6-Methyl-2-phenyl-5-(2-prop enyl)-4-pyrimidinyl]amino]-benzoic acid (called XCT0135908, which was described in the article by Wallen-Mackenzie et al. published in Genes & Development 17, pages 3036-3047) at 2·10^−5 M (RXR agonist) was used as reference.
(§6) The levels of induction (designated by “efficiency”) were calculated relative to the baseline activity of each heterodimer. The results were expressed as a percentage of the level of induction relative to the level of induction obtained with the reference (the level of induction of the reference is arbitrarily taken to be 100%).

The target in test [2] is hNurr1_RXRγFL (NURR1/RXRγ heterodimer) (Homo sapiens, UniProt P43354+P48443). Briefly: Transactivation assay in Cos-7 cells, NURR-1-Gal4 / RXRγ, luciferase reporter. In kind it is cell-based. The note with it: for Emax: COS-7, read-out: hNurr1_RXRγFL Eff (%), efficacy in % relative to the reference XCT0135908 at 2·10^−5 M (=100%); for EC50: Cos-7 cells, overnight incubation. The method, then: as §1, §2, §3, §4, §5, §6
hNurr1_RXRγFL (NURR1/RXRγ heterodimer), sequence (P43354 328-598): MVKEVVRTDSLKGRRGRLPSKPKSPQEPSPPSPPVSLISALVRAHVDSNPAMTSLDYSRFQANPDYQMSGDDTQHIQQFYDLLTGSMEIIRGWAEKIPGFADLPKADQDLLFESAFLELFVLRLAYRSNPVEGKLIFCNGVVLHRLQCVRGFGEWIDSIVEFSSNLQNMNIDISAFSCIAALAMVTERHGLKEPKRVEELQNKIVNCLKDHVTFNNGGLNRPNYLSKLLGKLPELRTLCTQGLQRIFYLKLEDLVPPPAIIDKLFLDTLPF
hNurr1_RXRγFL (NURR1/RXRγ heterodimer), sequence (P48443 whole entry, the tested form may be a part): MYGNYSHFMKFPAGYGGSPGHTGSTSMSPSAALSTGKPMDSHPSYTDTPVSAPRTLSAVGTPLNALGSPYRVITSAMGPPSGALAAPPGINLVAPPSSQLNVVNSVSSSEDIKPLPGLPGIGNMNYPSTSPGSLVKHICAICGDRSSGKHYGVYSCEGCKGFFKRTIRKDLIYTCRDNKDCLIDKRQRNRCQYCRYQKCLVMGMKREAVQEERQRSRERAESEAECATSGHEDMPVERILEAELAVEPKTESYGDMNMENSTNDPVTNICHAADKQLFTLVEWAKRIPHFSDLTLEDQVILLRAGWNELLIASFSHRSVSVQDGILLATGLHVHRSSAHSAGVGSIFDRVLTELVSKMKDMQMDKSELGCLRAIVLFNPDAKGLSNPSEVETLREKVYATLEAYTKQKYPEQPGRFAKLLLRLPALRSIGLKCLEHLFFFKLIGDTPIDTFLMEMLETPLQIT

hNurr1_RXRαFL (NURR1/RXRα heterodimer), sequence (P19793 whole entry, the tested form may be a part): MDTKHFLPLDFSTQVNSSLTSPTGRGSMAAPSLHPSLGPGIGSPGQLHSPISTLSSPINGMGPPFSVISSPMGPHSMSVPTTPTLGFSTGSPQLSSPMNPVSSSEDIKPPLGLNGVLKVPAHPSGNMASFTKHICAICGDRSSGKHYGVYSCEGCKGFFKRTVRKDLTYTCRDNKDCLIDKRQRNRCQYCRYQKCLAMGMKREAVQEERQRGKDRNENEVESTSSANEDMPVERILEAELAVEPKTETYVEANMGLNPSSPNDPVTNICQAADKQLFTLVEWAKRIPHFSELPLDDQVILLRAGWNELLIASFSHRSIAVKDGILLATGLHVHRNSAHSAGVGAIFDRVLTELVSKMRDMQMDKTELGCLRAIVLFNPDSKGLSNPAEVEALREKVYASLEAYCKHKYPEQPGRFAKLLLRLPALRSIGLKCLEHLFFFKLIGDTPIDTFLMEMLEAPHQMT
hNurr1_RXRαFL (NURR1/RXRα heterodimer), sequence (P43354 328-598): as the sequence (P43354 328-598) above

For orientation: EC50 means the concentration needed to bring the measured effect to its halfway point. A low value points to an effect from little substance. Take `O=C(O)c1ccc(Cc2cc3cc(C(F)(F)F)ccc3n2S(=O)(=O)c2ccc(C(=O)N3CCOCC3)cc2)cc1` [Example 129, 4-[[1-[4-(morpholine-4-carbonyl)benzenesulfonyl]-5-(trifluoromethyl)-1H-indol-2-yl]methyl]benzoic acid]: in test [1], the Emax came to 41% and the midpoint of the response, the EC50, lay at 804 nM.
As for `O=C(O)c1ccc(Cc2cc3cc(Cl)ccc3n2S(=O)(=O)c2ccc(-c3cccc(F)c3)cc2)cc1` [Example 172, 4-[[1-[3′-fluoro-biphenyl-4-sulfonyl]-5-(chloro)-1H-indol-2-yl]methyl]benzoic acid], in test [1], the Emax is 82% and the EC50 is 117 nM. In test [2], the Emax amounted to 47% and the EC50 is 567 nM.
On to `O=C(O)c1ccc(Cc2cc3cc(Cl)ccc3n2S(=O)(=O)c2ccc3c(c2)OCCO3)o1` [Example 79, 5-[[5-chloro-1-[(2,3-dihydro-benzo[1,4]dioxin-6-yl)sulfonyl]-1H-indol-2-yl]methyl]-furan-2-carboxylic acid], for which, in test [1], the Emax was determined as 147% and the EC50 was found to be 724 nM.
Turning to `COC(=O)c1ccc(Cc2cc3cc(Cl)ccc3n2S(=O)(=O)c2ccc(C(C)C)cc2)cc1` [Example 40, 4-[[5-chloro-1-[[4-(1-methylethyl)phenyl]sulfonyl]-1H-indol-2-yl]methyl]benzoic acid, methyl ester], in test [1], the Emax came out at 96% and the EC50 is 560 nM. Besides, in test [2], the Emax was determined as 75% and it took 2110 nM to reach a half-maximal effect (EC50).
For the compound `CC(C)(C)c1cccc(S(=O)(=O)n2c(Cc3ccc(C(=O)O)cc3)cc3cc(C(F)(F)F)c(F)cc32)c1` [Example 117, 4-[[1-[[3-(1,1-dimethylethyl)phenyl]sulfonyl]-5-(trifluoro)-6-fluoro-1H-indol-2-yl]methyl]benzoic acid], in test [1], the Emax was determined as 84% and a half-maximal response (EC50) required 39 nM. Also, in test [2], the Emax came out at 73% and a half-maximal effect (EC50) was put at 91 nM.
Turning to `O=C(O)c1cc(Cc2cc3cc(Cl)ccc3n2S(=O)(=O)c2ccc3c(c2)OCCO3)cs1` [Example 78], in test [1], the Emax came to 116% and the EC50 came out at 331 nM.
In the case of `CC(C)(C)c1cccc(S(=O)(=O)n2c(Cc3cc(F)cc(C(=O)O)c3)cc3cc(C(F)(F)F)ccc32)c1` [Example 201, 3-[[1-[[3-(1,1-dimethylethyl)-phenyl]sulfonyl]-5-trifluoromethyl-1H-indol-2-yl]methyl]-5-fluorobenzoic acid], the “hNurr1_RXRαFL Eff (%)” value in test [1] amounted to 96%.
`CC(C)c1ccc(S(=O)(=O)n2c(Cc3csc(C(=O)O)c3)cc3cc(C(F)(F)F)ccc32)cc1` [Example 72, 4-[[1-[[4-(1-methylethyl)-phenyl]sulfonyl]-5-trifluoromethyl-1H-indol-2-yl]methyl]-thiophene-2-carboxylic acid]: in test [1], the Emax was determined as 131% and the midpoint of the response, the EC50, lay at 72 nM.
On the same counts, the results for `CN1CCOc2ccc(S(=O)(=O)n3c(Cc4ccc(C(=O)O)o4)cc4cc(C(F)(F)F)ccc43)cc21` [Example 75, 5-[[1-[(4-methyl-3,4-dihydro-2H-benzo[1,4]oxazin-6-yl)-sulfonyl]-5-trifluoromethyl-1H-indol-2-yl]methyl]-furan-2-carboxylic acid] are 114% and 66 nM.
On to `Cn1cc(Cc2cc3cc(C(F)(F)F)ccc3n2S(=O)(=O)c2cccc(C(C)(C)C)c2)cc1C(=O)O` [Example 87, 4-[[1-[[3-(1,1-dimethylethyl)-phenyl]sulfonyl]-5-trifluoromethyl-1H-indol-2-yl]methyl]-1-methyl-pyrrol-2-yl-carboxylic acid], for which, in test [1], the Emax is 123% and the EC50 stood at 30 nM.
In the case of `CC(C)(C)c1cccc(S(=O)(=O)n2c(Cc3cc(C(=O)O)c(F)cc3Cl)cc3cc(C(F)(F)F)ccc32)c1` [Example 203, 3-[[1-[[3-(1,1-dimethylethyl)-phenyl]sulfonyl]-5-trifluoromethyl-M-indol-2-yl]methyl]-4-chloro-6-fluorobenzoic acid], in test [1], the EC50 amounted to 85 nM and the “hNurr1_RXRαFL Eff (%)” value stood at 83%.
For the compound `CC(C)(C)c1cccc(S(=O)(=O)n2c(C(=O)c3ccc(C(=O)O)s3)cc3cc(C(F)(F)F)ccc32)c1` [Example 94, 5-[[1-[[3-(1,1-dimethylethyl)-phenyl]sulfonyl]-5-trifluoromethyl-1H-indol-2-yl]-carbonyl]-thiophene-2-carboxylic acid], in test [1], the Emax turned out to be 106% and the 50% effective concentration (EC50) was 1240 nM.
In the case of `CC(C)(C)c1cccc(S(=O)(=O)n2c(Cc3cc(C(=O)O)ccc3F)cc3cc(C(F)(F)F)ccc32)c1` [Example 199, 3-[[1-[[3-(1,1-dimethylethyl)-phenyl]sulfonyl]-5-trifluoromethyl-1H-indol-2-yl]methyl]-4-fluorobenzoic acid], in test [1], the Emax was 118% and the EC50 was 22 nM.
For `CN1CCOc2ccc(S(=O)(=O)n3c(Cc4csc(C(=O)O)c4)cc4cc(C(F)(F)F)ccc43)cc21` [Example 74, 4-[[1-[(4-methyl-3,4-dihydro-2H-benzo[1,4]oxazin-6-yl)-sulfonyl]-5-trifluoromethyl-1H-indol-2-yl]methyl]-thiophene-2-carboxylic acid], in test [1], the Emax turned out to be 150% and the EC50 worked out at 40 nM.
In the case of `CC(C)(C)c1cccc(S(=O)(=O)n2c(Cc3cc(F)cc(C(=O)O)c3)cc3cc(C(F)(F)F)ccc32)c1` [Example 200, 3-[[1-[[3-(1,1-dimethylethyl)-phenyl]sulfonyl]-5-trifluoromethyl-1H-indol-2-yl]methyl]-5-fluorobenzoic acid], the Emax in test [1] came to 93%.
Turning to `CC(C)(C)c1cccc(S(=O)(=O)n2c(Cc3ccc(C(=O)O)cc3Cl)cc3cc(C(F)(F)F)ccc32)c1` [Example 205, 4-[[1-[[3-(1,1-dimethylethyl)-phenyl]sulfonyl]-5-trifluoromethyl-1H-indol-2-yl]methyl]-3-chlorobenzoic acid], in test [1], the Emax is 75% and the midpoint of the response, the EC50, lay at 98 nM.
With `CN1CCOc2ccc(S(=O)(=O)n3c(Cc4cc(C(=O)O)co4)cc4cc(C(F)(F)F)ccc43)cc21` [Example 76, 5-[[1-[[4-methyl-3,4-dihydro-2H-benzo[1,4]oxazin-6-yl)-sulfonyl]-5-trifluoromethyl-1H-indol-2-yl]methyl]-furan-3-carboxylic acid], in test [1], the Emax was 138% and the EC50 came to 63 nM.
Taken in the same sequence, the figures for `CC(C)(C)c1cccc(S(=O)(=O)n2c(C(O)c3ccc(C(=O)O)s3)cc3cc(C(F)(F)F)ccc32)c1` (centres unmarked) [Example 91, 5-[[1-[[3-(1,1-dimethylethyl)-phenyl]sulfonyl]-5-trifluoromethyl-1H-indol-2-yl]hydroxymethyl]-thiophene-2-carboxylic acid] were 100% and 72 nM.
Taken in the same sequence, the figures for `CC(C)(C)c1cccc(S(=O)(=O)n2c(C(C)(O)c3ccc(C(=O)O)s3)cc3cc(C(F)(F)F)ccc32)c1` (centres unmarked) [Example 95, 5-[1-[1-[[3-(1,1-dimethylethyl)-phenyl]sulfonyl]-5-(trifluoromethyl)-1H-indol-2-yl]-1-hydroxyethyl]-thiophene-2-carboxylic acid] were 99% and 209 nM.
For `COc1ccc(C(=O)O)cc1Cc1cc2cc(C(F)(F)F)ccc2n1S(=O)(=O)c1cccc(C(C)(C)C)c1` [Example 208, 3-[[1-[[3-(1,1-dimethylethyl)-phenyl]sulfonyl]-5-trifluoromethyl-1H-indol-2-yl]methyl]-4-methoxybenzoic acid], in test [1], the Emax is 31% and a half-maximal effect (EC50) was put at 240 nM.
On the same counts, the results for `C=C(c1ccc(C(=O)O)s1)c1cc2cc(C(F)(F)F)ccc2n1S(=O)(=O)c1cccc(C(C)(C)C)c1` [Example 96, 5-[1-[1-[[3-(1,1-dimethylethyl)-phenyl]sulfonyl]-5-(trifluoromethyl)-1H-indol-2-yl]-1-ethenyl]-thiophene-2-carboxylic acid] are 54% and 339 nM.
Taken in the same sequence, the figures for `COc1ccc(Cc2cc3cc(C(F)(F)F)ccc3n2S(=O)(=O)c2cccc(C(C)(C)C)c2)cc1C(=O)O` [Example 202, 3-[[1-[[3-(1,1-dimethylethyl)-phenyl]sulfonyl]-5-trifluoromethyl-1H-indol-2-yl]methyl]-6-methoxybenzoic acid] were 104% and 19 nM.
Taken in the same sequence, the figures for `COc1c(Cc2cc3cc(C(F)(F)F)ccc3n2S(=O)(=O)c2cccc(C(C)(C)C)c2)cccc1C(=O)O` [Example 207, 3-[[1-[[3-(1,1-dimethylethyl)-phenyl]sulfonyl]-5-trifluoromethyl-1H-indol-2-yl]methyl]-2-methoxybenzoic acid] were 48% and 513 nM.
